Reference: PMC13401508 (Pharmacological research, 2026)
Values after ≈ are worked out from the molar mass of the structure shown.

What was measured:
CYP2E1 = target: T1, CYP2E1 (Homo sapiens, UniProt P05181); assay: Drug-substrate based CYP inhibition, 2E1; assay type: in vitro ADME; settings: human liver microsomes
T1 construct: in the presence of human liver microsomes; from tissue; host or cells: human liver microsomes
Description: IVMT-Rx-4 was incubated with selective probe substrates of each CYP isoform in the presence of human liver microsomes. The formation of metabolite was quantified using LC-MS/MS methods. The extent of inhibition was assessed by calculating the remaining enzyme activity and percent inhibition based on analyte-to-internal standard area ratios, using the following equations:
Area Ratio = Peak AreaAnalyte / Peak AreaInternal Standard
Remaining Activity (%) = Area Ratiotest compound / Area Ratiovehicle ×100
Inhibition (%) = 100 ̶ Remaining Activity (%)

CXCL5 = CXCL5 mRNA by qRT-PCR in HS5 cells; assay type: cell-based, human; settings: PDGF-AA activated HS5 cells, 24 hrs
Description: Total RNA was extracted from cells using miRNeasy kits (Qiagen), and cDNA was prepared as described previously. Gene specific TaqMan Probes were obtained from Applied Bio system, Thermo-Fisher, USA. qRT-PCR was performed using an ABI Quant Studio real-time PCR.
Fig. 3. […] CXCL5 mRNA expression was measured by qRT-PCR. […] Secreted CXCL5 in CM was measured by ELISA (n = 3 ± SD; * p < 0.05). […] CXCL5 mRNA expression was measured by qRT-PCR (n = 3 ± SD; * p < 0.05).

RM1-BM-Luc cells = assay: Experimental bone metastasis, intracardiac RM1-BM-Luc; assay type: in vivo, C57BL/6 mice
Description: For experimental bone metastasis experiments, 3 × 10^4 RM1-BM-Luc cells were injected by the intracardiac route to develop bone-metastases in 6- to 8-week-old male C57BL/6 mice as described previously. Incidence of metastasis was monitored using Bioluminescence imaging, as described previously.
Fig. 4. […] RM1-BM-Luc cells were injected through the intracardiac (I.C.) route into C57BL/6 mice to establish experimental bone metastases. […] A) BLI imaging was performed on day 15 and the number of bone metastasis positive mice were graphically represented as metastatic events. B) Calculated ROI values are graphically represented (n = 6 ± SEM; * p < 0.05). C) Ex vivo BLI image of representative bones from both vehicle and IVMT-Rx-4 treated animals. D) Representative ex vivo images and (E) number of animals positive for metastases in the lungs, liver, brain and spleen for each experimental group ae presented.

[1] = Thermodynamic solubility in PBS, pH 7.4; assay type: physicochemical
MST = assay: Western blot, PDGF-AA activated HS5 cells: MST; assay type: cell-based, human; settings: PDGF-AA 10 ng/ML, 25 μM, 24 hrs
PC3-ML-Luc cells = assay: Combination and survival study, PC3-ML-Luc model; assay type: in vivo; settings: PC3-ML-Luc in athymic nude mice, day 14, IVMT-Rx-4 30 mg/kg and/or Docetaxel 5 mg/kg 3X a week for two weeks
Description: Both syngeneic (C57BL/6) and athymic nude mice were used for survival studies. Tumor cells (RM1-BM-Luc or PC3-ML-Luc) were injected intracardially in a cohort of 40 animals. […] In the combination groups, both regimens were administered 3X a week for two-weeks at the same dose as a single therapy. Animals were imaged periodically and maintained until euthanization was required.
Fig. 5. […] A and B) RM1-BM-Luc (A) or PC3-ML-Luc (B) cells were implanted I.C. in C57BL/6 and athymic nude mice, respectively. […] BLI images were used to detect bone metastases (the percentage incidence of bone metastases in animals was calculated at a single time point, day 14). Values are presented at the bottom panel of the respective group (red, number of animals positive for metastasis and black, total number of experimental animals). C and D) Animals were kept until mandated euthanasia based on IACUC guidelines, considered as disease associated death. The Kaplan–Meier survival curves were generated using GraphPad in both models as described in (A) and (B), respectively. E and F) Log-rank test was performed and values between different experimental groups are presented.

Caco-2 cell monolayer = assay: Caco-2 bidirectional permeability; assay type: in vitro ADME; settings: 10 µM
Description: To prepare the Caco-2 cell monolayer, 50 µL and 25 µL of cell culture medium (Dulbecco’s modified Eagle’s medium, DMEM) were added to each well of the inserts and reservoir, respectively, within a 96-well HTS Transwell plate (Corning, NY, USA). The plate was incubated at 37 °C and 5% CO2 for 1 hr. prior to cell seeding. Caco-2 cells were then diluted to 6.86 x 10^5 cells/mL using culture medium and 50 µL of cell suspension were seeded into the plate, and incubated at 37 °C, 5% CO2, and 95% relative humidity for 14-18 days. During this time, the cells were cultivated with media replacements occurring every other day. Cells were allowed to grow and differentiate and the integrity of the Caco-2 cell monolayer was evaluated by measurement of transepithelial electrical resistance (TEER) using a Millicell Epithelial Volt-Ohm measuring system (Millipore, USA).
Prior to the assay, the established monolayer was washed twice with pre-warmed HBSS and incubated at 37 °C for 30 minutes. A bidirectional permeability assay was performed simultaneously using two different plates as described previously (Supplementary Reference: Cui Y, Desevaux C, Truebenbach I, Sieger P, Klinder K, Long A, Sauer A. A Bidirectional Permeability Assay for beyond Rule of 5 Compounds. Pharmaceutics. 2021 Jul 27;13(8):1146. doi: 10.3390/pharmaceutics13081146. PMID: 34452112; PMCID: PMC8400635.): one assessed permeability from the apical to the basolateral side, while the other assessed from the basolateral to the apical side. […] For apical to basolateral permeability, 108 µL of working solution was loaded into the apical compartment, whereas 308 µL of working solution was added to the basolateral compartment for basolateral to apical permeability. The samples collected from donor and receiver compartment were mixed with 72 µL transport buffer and 240 µL of acetonitrile containing internal standard (IS, 100 nM alprazolam, 200 nM Caffeine and 100 nM tolbutamide), centrifuged at 1000 rpm for 10 minutes. […] In doing so, the following equations were used: […]
Where, Papp is apparent permeability (cm/s x 10^-6), dQ/dt is the rate of drug transport (pmol/second), A is the surface area of the membrane (cm^2), and D0 is the initial donor concentration (nM; pmol/cm^3). (B-A) indicates basolateral to apical permeation, where (A-B) indicates apical to basolateral.

[2] = tumor-bearing animals, 30 mg/kg I.P., vs DMSO

T1 sequence (P05181 whole entry): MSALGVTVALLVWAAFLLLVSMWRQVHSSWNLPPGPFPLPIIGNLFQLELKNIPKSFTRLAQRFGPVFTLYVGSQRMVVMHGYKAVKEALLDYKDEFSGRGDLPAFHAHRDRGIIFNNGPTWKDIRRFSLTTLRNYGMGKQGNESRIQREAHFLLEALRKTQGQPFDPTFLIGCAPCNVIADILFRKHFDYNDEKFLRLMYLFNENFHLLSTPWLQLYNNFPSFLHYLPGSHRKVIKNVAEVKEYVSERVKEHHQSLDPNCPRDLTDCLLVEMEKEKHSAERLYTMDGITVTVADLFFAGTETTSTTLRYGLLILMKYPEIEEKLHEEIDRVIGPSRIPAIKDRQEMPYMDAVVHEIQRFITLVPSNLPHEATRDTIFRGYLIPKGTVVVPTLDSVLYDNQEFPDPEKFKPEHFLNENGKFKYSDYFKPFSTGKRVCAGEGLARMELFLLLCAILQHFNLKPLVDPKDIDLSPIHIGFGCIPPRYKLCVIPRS

Cc1cc(NC(=O)CCc2nnc(-c3ccccc3)o2)c(C)cc1N [IVMT-Rx-4]
IC50 (CYP2E1): ~8 µM | CXCL5 mRNA level (CXCL5): significantly decreased | animals with bone metastases (RM1-BM-Luc cells; 30 mg/kg I.P. 3X a week for two weeks, fourteen days post-intracardiac injection, BLI): 0 out of 6 | Ex Vivo Imaging; Positive for tumor cells (n=6) Brain (RM1-BM-Luc cells; 30 mg/kg I.P., 6 doses): 0 | Ex Vivo Imaging; Positive for tumor cells (n=6) Liver (RM1-BM-Luc cells; 30 mg/kg I.P., 6 doses): 2 | Ex Vivo Imaging; Positive for tumor cells (n=6) Lungs (RM1-BM-Luc cells; 30 mg/kg I.P., 6 doses): 6 | Ex Vivo Imaging; Positive for tumor cells (n=6) Spleen (RM1-BM-Luc cells; 30 mg/kg I.P., 6 doses): 0 | metastasis to the liver, brain and spleen, as well as to the bones (RM1-BM-Luc cells; 30 mg/kg I.P., ex-vivo imaging): partially prevented metastasis | CXCL5 in the serum of mice (RM1-BM-Luc cells; [2]): reduced expression | PDGF-AA in the serum of mice (RM1-BM-Luc cells; [2]): reduced expression | Thermodynamic solubility in PBS, pH 7.4 [1]: ~160 mg/ML | solubility thermodynamic ([1]; pH 7.4, aqueous buffer, thermodynamic from solid): 160 mg/mL (≈ 476 mM) | phosphorylation of MST (MST): promoted the phosphorylation of MST | bone metastases, Incident/Total number tested (PC3-ML-Luc cells): 1/8 | Caco-2 Bidirectional A-B (Caco-2 cell monolayer; apical to basolateral): 21.5 ×10⁻⁶ cm/s | Caco-2 Bidirectional B-A (Caco-2 cell monolayer; basolateral to apical): 19.9 ×10⁻⁶ cm/s
